Test results as given in patent publication US20190015423A1, “REGULATION OF GENE EXPRESSION BY MODULATING PRIMARY CILIA LENGTH” (THE TRUSTEES OF COLUMBIA UNIVERSITY IN THE CITY OF NEW YORK, priority 2016, published 2019).
“Also recorded” adds a separate entry of the source. Structures can show the parent of a compound that is named as a salt.

Assays:
C3H10T1/2 MSCs = test: Flow-induced paracrine signaling: conditioned media of treated osteocytes on MSCs (OSX mRNA); type: cell-based; conditions: osteocytes treated with fenoldopam 10 μM 16 hours; MSCs cultured 48 hours in conditioned media
Description: Osteocytes were seeded at 2800 cells/cm2 for 72 hours before application of fluid flow. MC3T3 osteoblasts were cultured in MEMα supplemented with 10% FBS and 1% P/S. Osteoblasts were seeded at 2000 cells/cm2 72 hours before receiving conditioned media. C3H10T1/2 MSCs were cultured in DMEM low glucose (Life Technologies) supplemented with 10% FBS and 1% P/S, and seeded at 1100 cells/cm2 72 hours before culture with conditioned media 150. […] Osteocytes were cultured on rectangular flasks (8.2×9.2 cm; 12.5 ml of media) on a rocking platform which oscillated at a frequency of 0.33 Hz with an amplitude of 1.3 cm, supplying 0.08 Pa shear stress for 2, 6, 12, or 24 hours, FIG. 4.2. Shear stress generated by oscillatory fluid flow was calculated as previously performed 153. 12 hours of fluid flow was used in all experiments. Cells were also cultured in static conditions as a no flow control. Conditioned media was collected from osteocytes immediately upon completion of rocking, and used to culture osteoblasts or MSCs for 24 or 48 hours, respectively. […] Gene expression was analyzed by quantitative real-time PCR using primers and probes (Life Technologies) for analysis of osteopontin, OPN (Mm00436767_m1), osterix, OSX (Mm04209856_m1), and GAPDH (4351309). […]

[1] = μCT analysis of non-loaded ulnae; type: in vivo, mice; conditions: for μCT: normal bone properties / microarchitecture (in words): 7 days, non-loaded ulnar midshaft
Description: Non-loaded ulnae were used for μCT analysis. Samples were imaged with a Scanco ViaCT 80 at 10.5 μm isotropic resolution. Images were processed using a Gaussian filter and global threshold to segment bone volumes. Ulnar midshafts were imaged and used to assess cortical bone, while the proximal epiphysis was used to examine ulnar trabecular bone. Cortical bone analysis was performed to determine total area, cortical area, marrow area, bone volume fraction (BV/TV), cortical thickness, moment of inertia (Imax and Imin), and bone mineral density (BMD). Trabecular analyses included BV/TV, connectivity density, trabecular number, trabecular thickness, trabecular spacing, and BMD.

[2] = Table 1, ulnar midshaft, Female

Cortical area [1, 2]: 0.310 ± 0.003 mm^2 | Cortical thickness [1, 2]: 0.173 ± 0.006 mm | Imax [1, 2]: 0.029 ± 0.001 mm^4 | Imin [1, 2]: 0.005 ± 0.000 mm^4 | Porosity [1, 2]: 0.131 ± 0.006% | Total area ([1]; Table 1, ulnar midshaft, Female, fenoldopam 20 mg/kg 7 days): 0.357 ± 0.005 mm^2 | Cortical area ([1]; Table 1, ulnar midshaft, Male): 0.320 ± 0.023 mm^2 | Cortical thickness ([1]; Table 1, ulnar midshaft, Male): 0.169 ± 0.009 mm | Imax ([1]; Table 1, ulnar midshaft, Male): 0.033 ± 0.007 mm^4 | Imin ([1]; Table 1, ulnar midshaft, Male): 0.004 ± 0.001 mm^4 | Porosity ([1]; Table 1, ulnar midshaft, Male): 0.134 ± 0.003% | Total area ([1]; Table 1, ulnar midshaft, Male, fenoldopam 20 mg/kg 7 days): 0.370 ± 0.027 mm^2 | Cortical area ([1]; Table 5, cortical, Female): 0.310 ± 0.003 mm^2 | Cortical thickness ([1]; Table 5, cortical, Female): 0.173 ± 0.006 mm | Imax ([1]; Table 5, cortical, Female): 0.029 ± 0.001 mm^4 | Imin ([1]; Table 5, cortical, Female): 0.005 ± 0.000 mm^4 | Cortical area ([1]; Table 5, cortical, Male): 0.320 ± 0.009 mm^2 | Cortical thickness ([1]; Table 5, cortical, Male): 0.169 ± 0.004 mm | Imax ([1]; Table 5, cortical, Male): 0.033 ± 0.003 mm^4 | Imin ([1]; Table 5, cortical, Male): 0.004 ± 0.001 mm^4 | Marrow area ([1]; Table 5, cortical, Male): 0.049 ± 0.001 mm^2 | Total area ([1]; Table 5, ulnar midshaft - cortical, non-loaded, Female, 20 mg/kg fenoldopam): 0.357 ± 0.005 mm^2 | Total area ([1]; Table 5, ulnar midshaft - cortical, non-loaded, Male, 20 mg/kg fenoldopam): 0.370 ± 0.010 mm^2 | μCT: normal bone properties / microarchitecture (in words) ([1]; fenoldopam 20 mg/kg): no change; also recorded: no difference | μCT: normal bone properties / microarchitecture (in words) ([1]; fenoldopam 20 mg/kg, listed as Fenoldopam): did not result in any change | μCT: normal cortical bone properties including thickness, area, and moment of inertia ([1]; fenoldopam 20 mg/kg, preliminary study, data not shown): no change
Structure (SMILES): Oc1ccc(C2CNCCc3c2cc(O)c(O)c3Cl)cc1 (stereo not drawn) [fenoldopam, Fenoldopam mesylate]
MSC osteogenic differentiation, as measured by osterix (OSX) expression (C3H10T1/2 MSCs): significantly enhanced
